ChEMBL document CHEMBL3217587, “The discovery of N-1 substituted 2-aminobenzimidazoles as zinc-dependent S. aureus biofilm inhibitors” (Medchemcomm, 2012)
Calls of active or inactive are those of the source. No cut-off for these calls is given here.

Experiments:
Staphylococcus aureus [1] = test: Toxicity in methicillin-resistant Staphylococcus aureus ATCC 43300 assessed as inhibition of planktonic cell growth at IC50 after 2 to 24 hrs by spectrophotometry; format: organism-based
Staphylococcus aureus [2] = test: Antimicrobial activity against methicillin-resistant Staphylococcus aureus ATCC 43300 assessed as inhibition of biofilm formation at 8 uM after 24 hrs by crystal violet staining-based microscopy in presence of Mg2+ ion; format: functional, organism-based
Acinetobacter baumannii = test: Antimicrobial activity against multidrug-resistant Acinetobacter baumannii ATCC BAA-1605 after 16 hrs by broth microdilution method; format: functional; conditions: ATCC BAA-1605, 16 h
Staphylococcus aureus [3] = test: Antimicrobial activity against methicillin-resistant Staphylococcus aureus ATCC BAA-1556 after 16 hrs by broth microdilution method; format: functional; conditions: ATCC BAA-1556, 16 h
Staphylococcus aureus [4] = test: Antimicrobial activity against methicillin-resistant Staphylococcus aureus ATCC 43300 after 16 hrs by broth microdilution method; format: functional; conditions: ATCC 43300, 16 h
Staphylococcus aureus [5] = test: Antimicrobial activity against methicillin-resistant Staphylococcus aureus ATCC 43300 assessed as inhibition of biofilm formation at 8 uM after 24 hrs by crystal violet staining-based microscopy in presence of > 50 uM Zn2+ ion; format: functional, organism-based
Staphylococcus aureus [6] = test: Antimicrobial activity against methicillin-resistant Staphylococcus aureus ATCC BAA-1753 after 16 hrs by broth microdilution method; format: functional; conditions: ATCC BAA-1753, 16 h
Staphylococcus aureus [7] = test: Antimicrobial activity against methicillin-resistant Staphylococcus aureus ATCC BAA-811 after 16 hrs by broth microdilution method; format: functional; conditions: ATCC BAA-811, 16 h
Staphylococcus aureus [8] = test: Antimicrobial activity against methicillin-resistant Staphylococcus aureus ATCC 700789 after 16 hrs by broth microdilution method; format: functional; conditions: ATCC 700789, 16 h
Staphylococcus aureus [9] = test: Antimicrobial activity against methicillin-resistant Staphylococcus aureus ATCC 43300 assessed as inhibition of biofilm formation at 8 uM after 24 hrs by crystal violet staining-based microscopy in presence of < 50 uM Zn2+ ion; format: functional
Staphylococcus aureus [10] = test: Antimicrobial activity against methicillin-resistant Staphylococcus aureus ATCC 43300 assessed as inhibition of biofilm formation at 8 uM after 24 hrs by crystal violet staining-based microscopy in presence of Cu2+ ion; format: functional, organism-based
Staphylococcus aureus [11] = test: Antimicrobial activity against methicillin-resistant Staphylococcus aureus ATCC 43300 assessed as inhibition of biofilm formation at 8 uM after 24 hrs by crystal violet staining-based microscopy in presence of Mn2+ ion; format: functional, organism-based
Staphylococcus aureus [12] = test: Antimicrobial activity against methicillin-susceptible Staphylococcus aureus ATCC 29213 after 16 hrs by broth microdilution method; format: functional; conditions: ATCC 29213, 16 h
Staphylococcus aureus [13] = test: Antimicrobial activity against methicillin-resistant Staphylococcus aureus ATCC BAA-44 after 16 hrs by broth microdilution method; format: functional; conditions: ATCC BAA-44, 16 h
Staphylococcus aureus [14] = test: Antimicrobial activity against methicillin-resistant Staphylococcus aureus ATCC 43300 assessed as inhibition of biofilm formation after 24 hrs by crystal violet staining-based microscopy; format: functional, organism-based; conditions: ATCC 43300, 24 h
Pseudomonas aeruginosa = test: Antimicrobial activity against Pseudomonas aeruginosa PA14 after 16 hrs by broth microdilution method; format: functional; conditions: PA14, 16 h
Staphylococcus aureus [15] = test: Antimicrobial activity against methicillin-resistant Staphylococcus aureus ATCC 43300 assessed as inhibition of biofilm formation at 8 uM after 24 hrs by crystal violet staining-based microscopy in presence of 200 uM Zn2+ ion; format: functional
Staphylococcus aureus [16] = test: Antibiofilm activity against methicillin-resistant Staphylococcus aureus ATCC 43300 assessed as biofilm dispersal at 20 uM after 24 hrs by crystal violet staining-based microscopy; format: functional, organism-based
Staphylococcus aureus [17] = test: Antimicrobial activity against methicillin-resistant Staphylococcus aureus ATCC 43300 assessed as inhibition of biofilm formation at 8 uM after 24 hrs by crystal violet staining-based microscopy in presence of Fe2+ ion; format: functional, organism-based
Staphylococcus aureus [18] = test: Toxicity in methicillin-resistant Staphylococcus aureus ATCC BAA-44 assessed as inhibition of planktonic cell growth at IC50 after 2 to 24 hrs by spectrophotometry; format: organism-based
Staphylococcus aureus [19] = test: Antimicrobial activity against methicillin-resistant Staphylococcus aureus ATCC 43300 assessed as inhibition of biofilm formation at 8 uM after 24 hrs by crystal violet staining-based microscopy in presence of Ca2+ ion; format: functional, organism-based
Staphylococcus aureus [20] = test: Antimicrobial activity against methicillin-resistant Staphylococcus aureus ATCC BAA-44 assessed as inhibition of biofilm formation after 24 hrs by crystal violet staining-based microscopy; format: functional, organism-based; conditions: ATCC BAA-44, 24 h
Staphylococcus aureus [21] = test: Antimicrobial activity against methicillin-resistant Staphylococcus aureus ATCC 33591 after 16 hrs by broth microdilution method; format: functional; conditions: ATCC 33591, 16 h
Staphylococcus aureus [22] = test: Antimicrobial activity against methicillin-resistant Staphylococcus aureus ATCC BAA-1685 after 16 hrs by broth microdilution method; format: functional; conditions: ATCC BAA-1685, 16 h

Structure (SMILES): CCCCCc1ccc(C(=O)Nc2ccc3c(c2)nc(N)n3CCc2ccccc2)cc1.Cl
- Activity (Staphylococcus aureus [1]): Non-toxic
- inhibition (Staphylococcus aureus [2]): Active
- MIC (Acinetobacter baumannii): > 64 µg/mL
- MIC (Staphylococcus aureus [3]): 8 µg/mL
- MIC (Staphylococcus aureus [4]): 8 µg/mL
- inhibition (Staphylococcus aureus [5]): inactive
- MIC (Staphylococcus aureus [6]): 8 µg/mL
- MIC (Staphylococcus aureus [7]): 8 µg/mL
- MIC (Staphylococcus aureus [8]): 16 µg/mL
- inhibition (INH) (Staphylococcus aureus [9]): 70%
- inhibition (Staphylococcus aureus [10]): Active
- inhibition (Staphylococcus aureus [11]): Active
- MIC (Staphylococcus aureus [12]): 8 µg/mL
- MIC (Staphylococcus aureus [13]): 16 µg/mL
- IC50 (Staphylococcus aureus [14]): 4.7 µM
- MIC (Pseudomonas aeruginosa): > 64 µg/mL
- inhibition (INH) (Staphylococcus aureus [15]): 10%
- Activity (Staphylococcus aureus [16]): inactive
- inhibition (Staphylococcus aureus [17]): Active
- Activity (Staphylococcus aureus [18]): Non-toxic
- inhibition (Staphylococcus aureus [19]): Active
- IC50 (Staphylococcus aureus [20]): 6 µM
- MIC (Staphylococcus aureus [21]): 8 µg/mL
- MIC (Staphylococcus aureus [22]): 8 µg/mL

Structure (SMILES): CCCCCc1ccc(C(=O)Nc2ccc3c(c2)nc(N)n3CCCCc2c[nH]c3ccccc23)cc1.Cl
- Activity (Staphylococcus aureus [1]): Toxic
- MIC (Acinetobacter baumannii): > 64 µg/mL
- MIC (Staphylococcus aureus [3]): 32 µg/mL
- MIC (Staphylococcus aureus [4]): 32 µg/mL
- MIC (Staphylococcus aureus [6]): 64 µg/mL
- MIC (Staphylococcus aureus [7]): 64 µg/mL
- MIC (Staphylococcus aureus [8]): 32 µg/mL
- MIC (Staphylococcus aureus [12]): 64 µg/mL
- MIC (Staphylococcus aureus [13]): 32 µg/mL
- IC50 (Staphylococcus aureus [14]): 5.7 µM
- MIC (Pseudomonas aeruginosa): > 64 µg/mL
- Activity (Staphylococcus aureus [16]): inactive
- Activity (Staphylococcus aureus [18]): Toxic
- IC50 (Staphylococcus aureus [20]): 7.9 µM
- MIC (Staphylococcus aureus [21]): 32 µg/mL
- MIC (Staphylococcus aureus [22]): 32 µg/mL

Structure (SMILES): CCCCCc1ccc(C(=O)Nc2ccc3c(c2)nc(N)n3CCCc2ccccc2)cc1.Cl
- Activity (Staphylococcus aureus [1]): Non-toxic
- MIC (Acinetobacter baumannii): > 64 µg/mL
- MIC (Staphylococcus aureus [3]): 16 µg/mL
- MIC (Staphylococcus aureus [4]): 16 µg/mL
- MIC (Staphylococcus aureus [6]): 32 µg/mL
- MIC (Staphylococcus aureus [7]): 16 µg/mL
- MIC (Staphylococcus aureus [8]): 32 µg/mL
- MIC (Staphylococcus aureus [12]): 16 µg/mL
- MIC (Staphylococcus aureus [13]): 32 µg/mL
- IC50 (Staphylococcus aureus [14]): 4.7 µM
- MIC (Pseudomonas aeruginosa): > 64 µg/mL
- Activity (Staphylococcus aureus [16]): inactive
- Activity (Staphylococcus aureus [18]): Non-toxic
- IC50 (Staphylococcus aureus [20]): 5.2 µM
- MIC (Staphylococcus aureus [21]): 16 µg/mL
- MIC (Staphylococcus aureus [22]): 32 µg/mL

Structure (SMILES): CCCCCCn1c(N)nc2cc(NC(=O)c3ccc(CCCCC)cc3)ccc21.Cl
- Activity (Staphylococcus aureus [1]): Non-toxic
- inhibition (Staphylococcus aureus [2]): Active
- MIC (Acinetobacter baumannii): > 64 µg/mL
- MIC (Staphylococcus aureus [3]): 16 µg/mL
- MIC (Staphylococcus aureus [4]): 16 µg/mL
- inhibition (Staphylococcus aureus [5]): inactive
- MIC (Staphylococcus aureus [6]): 16 µg/mL
- MIC (Staphylococcus aureus [7]): 16 µg/mL
- MIC (Staphylococcus aureus [8]): 32 µg/mL
- inhibition (Staphylococcus aureus [9]): inactive
- inhibition (Staphylococcus aureus [10]): Active
- inhibition (Staphylococcus aureus [11]): Active
- MIC (Staphylococcus aureus [12]): 16 µg/mL
- MIC (Staphylococcus aureus [13]): 16 µg/mL
- IC50 (Staphylococcus aureus [14]): 4.7 µM
- MIC (Pseudomonas aeruginosa): > 64 µg/mL
- Activity (Staphylococcus aureus [16]): inactive
- inhibition (Staphylococcus aureus [17]): Active
- Activity (Staphylococcus aureus [18]): Non-toxic
- inhibition (Staphylococcus aureus [19]): Active
- IC50 (Staphylococcus aureus [20]): 7.3 µM
- MIC (Staphylococcus aureus [21]): 16 µg/mL
- MIC (Staphylococcus aureus [22]): 16 µg/mL

Structure (SMILES): CCCCCc1ccc(C(=O)Nc2ccc3c(c2)nc(N)n3CCCCc2ccccc2)cc1.Cl
- Activity (Staphylococcus aureus [1]): Toxic
- MIC (Acinetobacter baumannii): > 64 µg/mL
- MIC (Staphylococcus aureus [3]): 16 µg/mL
- MIC (Staphylococcus aureus [4]): 32 µg/mL
- MIC (Staphylococcus aureus [6]): > 64 µg/mL
- MIC (Staphylococcus aureus [7]): 32 µg/mL
- MIC (Staphylococcus aureus [8]): 32 µg/mL
- MIC (Staphylococcus aureus [12]): 32 µg/mL
- MIC (Staphylococcus aureus [13]): 32 µg/mL
- IC50 (Staphylococcus aureus [14]): 6.9 µM
- MIC (Pseudomonas aeruginosa): > 64 µg/mL
- Activity (Staphylococcus aureus [16]): inactive
- Activity (Staphylococcus aureus [18]): Toxic
- IC50 (Staphylococcus aureus [20]): 14.3 µM
- MIC (Staphylococcus aureus [21]): 16 µg/mL
- MIC (Staphylococcus aureus [22]): 32 µg/mL
